Laboratory results reported in the NIST ThermoML archive (doi:10.1021/acs.jced.8b00666).
Numbers after ± are expanded uncertainties.

Details: Crystal; Heating/Cooling curves

SMILES | Normal melting temperature
O.O=P(O)(O)O.O=P(O)(O)O [phosphoric acid hemihydrate] | 29.2 ± 0.21 °C
C1CCCCC1 [cyclohexane] | 6.80 ± 0.2 °C
